Data reported in patent publication US11071738B2, “Therapeutic agent for fatty liver diseases and therapeutic agent for adiposity” (Hiroshima University, priority 2017, dated 2021).

Tests used:
Pin1 = target: T1, Pin1 (Homo sapiens, UniProt Q13526); assay: Cell-based Pin1 inhibition assay with AMPK phosphorylation level as index; set-up: key to Pin1 inhibition activity: +++: a higher level of AMPK phosphorylation is promoted, as compared with C1; ++: a similar level of AMPK phosphorylation is promoted, as compared with C1; +: a lower level of AMPK phosphorylation is promoted, as compared with C1; −: no or almost no promotion is found in AMPK phosphorylation; settings: 293T cells, compound at 100 μM, 10 mM 2-DG, pAMPK blot compared with C1
T1 construct: endogenous in cells; host or cells: 293T cells
T1 sequence (Q13526 whole entry): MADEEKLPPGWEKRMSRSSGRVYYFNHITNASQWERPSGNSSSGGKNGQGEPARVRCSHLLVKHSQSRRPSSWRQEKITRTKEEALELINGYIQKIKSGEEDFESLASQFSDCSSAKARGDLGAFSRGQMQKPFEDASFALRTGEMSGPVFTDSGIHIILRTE
Experimental: To evaluate the inhibitory activity of each synthesized compound against the function of Pin1, a cell-based assay was performed according to the method previously developed by the inventors (Yusuke Nakatsu et al., Journal of Biological Chemistry, 2015, Vol. 290, No. 40, pp. 24255-24266), in which the phosphorylation level of AMPK (AMP-activated protein kinase), a protein whose phosphorylation is inhibited by Pin1, was examined as an index.
Briefly, 293T cells were plated on a collagen-coated 24-well plate. Forty-eight hours later, each compound synthesized in the preceding example (at 100 μM) was added to the plate, and the plate was left to stand in an incubator for 30 minutes. Subsequently, 10 mM 2-DG was added to the plate, and one hour later, each sample was collected with a buffer containing mercaptoethanol and SDS.
SDS-PAGE and blotting were performed, and blocking was then performed with 3% BSA for 1 hour, according to conventional protocols. Subsequently, a pAMPK antibody (Cell Signaling; diluted 1:2000 in Can Get Signal Solution 1, Toyobo) as a primary antibody, and an HRP-linked anti rabbit IgG (GE Healthcare; diluted 1:4000 in Can Get Signal Solution 2, Toyobo) as a secondary antibody were allowed to react at ambient temperature for 1 hour prior to detection.
The inhibitory activity against the function of Pin1 was evaluated by comparing the inhibition levels between each compound and a known Pin1 inhibitor, C1, as indicated below: […]

NASH model mice (HFDT) = tested on: NASH model mice (HFDT)
Experimental: Animal experiments were performed using non-alcoholic steatohepatitis (NASH) model mice to test the compounds synthesized in Examples for the therapeutic effect on NASH.
NASH model mice (hereinafter referred to as “NASH mice”) were produced by feeding a high-fat diet containing trans fatty acids (HFDT) to individual male laboratory mice (C57BL/6J) for 8 weeks. […] In addition, a normal diet was given to individual male laboratory mice (C57BL/6J) for 8 weeks to prepare control mice.

NASH mice (MCDD) = assay: NASH treatment study in mice fed a methionine-choline-deficient diet (MCDD); assay type: in vivo, mice (C57BL/6J); settings: NASH mice given MCDD, i.p. 2.5 mg/kg/day three times a week
Experimental: Next, an animal experiment was performed on NASH mice that were produced by feeding a methionine-choline-deficient diet (MCDD).

[1] = HFDT NASH mice, 8 weeks, i.p. 2.5 mg/kg/day or oral 5.0 mg/kg/day three times a week

Structure (SMILES): O=C(O)[C@@H](Cc1ccc2ccccc2c1)NC(=O)n1c2ccccc2c2ccccc21 [Compound H-163]
- Pin1 inhibition activity (Pin1): ++
- blood ALT (GPT) value, index of liver inflammation (NASH model mice (HFDT); [1]): decreased
- fasting blood glucose level (NASH model mice (HFDT); [1]): no significant abnormality
- increase in liver weight (NASH model mice (HFDT); [1]): significantly reduced
- fat accumulation in liver tissue (microscopic observation) (NASH model mice (HFDT); NASH mice given HFDT): significantly reduced
- fat accumulation in liver tissue (microscopic observation) (NASH mice (MCDD); 8 weeks): reduced
- hepatic fibrosis (Azan staining) (NASH mice (MCDD); 8 weeks): significantly inhibited
- Collagen 1a1 mRNA expression level (NASH mice (MCDD)): reduced
- Collagen 1a2 mRNA expression level (NASH mice (MCDD)): reduced
- SMA mRNA expression level (NASH mice (MCDD)): reduced
